Experimental data taken from PubChem BioAssay (NCI).
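48-hour exposure; five concentrations; linearly interpolated endpoints. GI50: concentration for 50% inhibition of growth. TGI: concentration producing complete growth inhibition.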

Columns and labels:
Test in all cases: NCI tumour cell line growth inhibition, 48 h
A498 renal = system: A498 renal
CAKI-1 renal = system: CAKI-1 renal
CCRF-CEM leukemia = system: CCRF-CEM leukemia
HOP-62 NSCLC = system: HOP-62 NSCLC
IGROV1 ovarian = system: IGROV1 ovarian
LOX IMVI melanoma = system: LOX IMVI melanoma
NCI-H460 lung = system: NCI-H460 lung
OVCAR-3 ovarian = system: OVCAR-3 ovarian
T-47D breast = system: T-47D breast
UO-31 renal = system: UO-31 renal

SMILES | GI50 (A498 renal) | TGI (A498 renal) | GI50 (CAKI-1 renal) | TGI (CAKI-1 renal) | GI50 (CCRF-CEM leukemia) | TGI (CCRF-CEM leukemia) | GI50 (HOP-62 NSCLC) | TGI (HOP-62 NSCLC) | GI50 (IGROV1 ovarian) | TGI (IGROV1 ovarian) | GI50 (LOX IMVI melanoma) | TGI (LOX IMVI melanoma) | GI50 (NCI-H460 lung) | TGI (NCI-H460 lung) | GI50 (OVCAR-3 ovarian) | TGI (OVCAR-3 ovarian) | GI50 (T-47D breast) | TGI (T-47D breast) | GI50 (UO-31 renal) | TGI (UO-31 renal)
Cn1ccc(S(=O)(=O)N2CCC[C@H](Nc3nccc(-c4c(-c5cccc(O)c5)nc5occn45)n3)C2)n1 | 6.8 µM | 26.1 µM | 18 µM | 78.1 µM | 4.47 µM | > 100 µM | 31 µM | > 100 µM | 10.9 µM | 51.9 µM | 2.87 µM | 18.7 µM | 15.5 µM | 59.8 µM | 13.5 µM | 51.9 µM | 18.5 µM | 70.5 µM | 12.9 µM | 57.1 µM
CC1(C)CCC2(C(=O)O)C(O)CC3(C)C(=CCC4C5(C)CCC(OC6OCC(O)C(O)C6OC6OCC(O)C(O)C6OC6OCC(O)C(OC7OC(CO)C(O)C(O)C7O)C6O)C(C)(C)C5CCC43C)C2C1 (stereo not given) | – | 59 µM | – | > 100 µM | – | 71.9 µM | – | > 100 µM | – | > 100 µM | – | > 100 µM | – | > 100 µM | – | > 100 µM | – | > 100 µM | – | 35.3 µM
CCOC(=O)C(Cc1ccccc1)n1c(O)c(/C=N/c2ncc(Cc3ccc(Cl)cc3Cl)s2)sc1=S (stereo not given) | 1.58 µM | 7.64 µM | 1.71 µM | > 100 µM | 1.87 µM | > 100 µM | 2.69 µM | 8.12 µM | 3.73 µM | 71.5 µM | 3.44 µM | 16.5 µM | 2.09 µM | 12.4 µM | 2.84 µM | 9.96 µM | 2.16 µM | 8.73 µM | 1.97 µM | 5.31 µM
CCN1CCCCCCCCCC(=N/O)/C(=N\O)C1 | – | > 100 µM | – | > 100 µM | – | > 100 µM | – | > 100 µM | – | > 100 µM | – | > 100 µM | – | > 100 µM | – | > 100 µM | – | > 100 µM | – | > 100 µM
Cc1[nH]c(N)nc(=S)c1CCCNc1ccccc1 | – | 92.4 µM | – | > 100 µM | – | > 100 µM | – | > 100 µM | – | > 100 µM | – | > 100 µM | – | > 100 µM | – | > 100 µM | – | > 100 µM | – | > 100 µM
COC(=O)C1C(=O)C(C(=O)OC)C2CCC1N2C (stereo not given) | – | > 100 µM | – | > 100 µM | – | > 78.1 µM | – | > 100 µM | – | > 100 µM | – | > 83.1 µM | – | > 100 µM | – | > 72.1 µM | – | > 100 µM | – | > 100 µM
Cc1cc(NS(=O)(=O)c2ccc(-c3cnc(C4CC4)o3)cc2)ccc1Cl | 0.0828 µM | 0.676 µM | 0.0908 µM | 15.5 µM | 0.274 µM | > 41.1 µM | 0.313 µM | 17 µM | 0.335 µM | 13 µM | 0.386 µM | 14 µM | 0.297 µM | 11.1 µM | 0.0745 µM | 11.4 µM | 0.323 µM | 23.3 µM | 0.835 µM | 12.5 µM
C=C(CC)C(=O)c1ccc(OCC(=O)O)c(Cl)c1Cl | – | > 100 µM | – | 28.1 µM | – | > 76.3 µM | – | > 56 µM | – | 47.5 µM | – | 29.7 µM | – | > 69.9 µM | – | 30.1 µM | – | 27.6 µM | – | 34.3 µM
Cc1ccc(/C=C(/C#N)n2nnc3cccc(F)c32)cc1 | 0.226 µM | 0.877 µM | 0.327 µM | 25.3 µM | 0.389 µM | > 100 µM | 1.37 µM | > 100 µM | 0.453 µM | 10.6 µM | 0.409 µM | 1.81 µM | 0.35 µM | 2.13 µM | 0.227 µM | 0.536 µM | 0.509 µM | > 100 µM | 0.515 µM | 11.7 µM
O=C(Nc1nc2ccc(OC(F)(F)F)cc2s1)c1ccc(F)cc1 | 2.93 µM | 9.2 µM | 2.29 µM | 7.26 µM | 3.96 µM | > 100 µM | 3.81 µM | 26.9 µM | 3.89 µM | > 100 µM | 3.21 µM | 9.03 µM | 3.02 µM | 20.7 µM | 2.22 µM | 7.2 µM | 2.64 µM | 9.78 µM | 3.44 µM | > 100 µM
